For this test, the system named is E. coli (ATTC 8739). Put plainly: Zone of inhibition test. The class given is cell-based. To be noted: at 12.5 μg, FIG. 1B. The procedure:
Compound A was tested against L-phenylalanine-(S)-2-amino-N-hydroxy-4-(methylthio)butanamide hydrochloride (Example 3) in a side-by-side comparison in a conventional zone of inhibition test. In this test, both compounds were compared at various concentrations against E. coli (ATTC 8739) grown in a Petri dish using the antibiotic kanamycin as a control.

Structures can show the parent of a compound that is named as a salt. Square brackets hold non-standard residues; d marks the D form. Peptide text beside a SMILES is read from it. * marks the point of attachment. ξ: configuration not given here. ξF = NC(Cc1ccccc1)C(=O)O; NHOH = ON*

With `CSCC[C@H](NC(=O)C(N)Cc1ccccc1)C(=O)NO` (stereo partly drawn) [Example 3, L-phenylalanine-(S)-2-amino-N-hydroxy-4-(methylthio)butanamide Hydrochloride] (H-[ξF]-Met-{NHOH}), the “strength of zone of inhibition compared with cpd. A at 50 μg” value was “substantially stronger”.

Values taken from patent US20180298053A1, “ANTIBIOTIC OLIGOPEPTIDES” (priority 2017, published 2018).
